According to patent US5126344A, “Diazine derivatives and pharmaceutical use” (Imperial Chemical Industries PLC, priority 1989, dated 1992):

Tests used:
[1] = biological target: T1, angiotensin II (AII) receptors (Cavia porcellus, UniProt Q9WV26); assay: Test A: displacement of radiolabelled AII binding to cell surface membrane fraction from guinea pig adrenal gland; conditions: guinea pig adrenal gland membranes, read-out: IC50 (concentration for 50% displacement of radiolabelled AII binding)
T1 construct: the source of cell surface membranes is the guinea pig adrenal gland; from tissue; host or cells: guinea pig adrenal gland, cell surface membrane fraction
T1 sequence (Q9WV26 1-359): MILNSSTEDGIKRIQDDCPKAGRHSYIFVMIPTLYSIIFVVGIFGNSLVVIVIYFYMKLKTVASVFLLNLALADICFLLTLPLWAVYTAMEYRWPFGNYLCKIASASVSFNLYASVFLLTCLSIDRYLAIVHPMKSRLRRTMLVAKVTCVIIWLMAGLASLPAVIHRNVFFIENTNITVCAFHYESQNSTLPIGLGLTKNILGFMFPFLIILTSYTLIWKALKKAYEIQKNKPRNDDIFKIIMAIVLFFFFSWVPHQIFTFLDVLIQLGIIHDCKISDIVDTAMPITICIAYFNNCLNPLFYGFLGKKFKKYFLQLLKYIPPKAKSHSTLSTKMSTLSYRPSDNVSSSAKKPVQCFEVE
Description: This in vitro procedure involves the incubation of the test compound initially at a concentration of 100 micromolar (or less) in a buffered mixture containing fixed concentrations of radiolabelled AII and a cell surface membrane fraction prepared from a suitable angiotensin target tissue. In this test, the source of cell surface membranes is the guinea pig adrenal gland which is well known to respond to AII. Interaction of the radiolabelled AII with its receptors (assessed as radiolabel bound to the particulate membrane fraction following removal of unbound radiolabel by a rapid filtration procedure such as is standard in such studies) is antagonized by compounds which also bind to the membrane receptor sites and the degree of antagonism (observed in the test as displacement of membrane-bound radioactivity) is determined readily by comparing the receptor-bound radioactivity in the presence of the test compound at the specified test concentration with a control value determined in the absence of the test compound. Using this procedure compounds showing at least 50% displacement of radiolabelled AII binding at a concentration of 10^-4 M are retested at lower concentrations to determine their potency. […]

[2] = tested on: pressor responses induced by AII; assay: Test C: antagonism of AII-induced pressor responses in terminally-anaesthetised or conscious rats; type: in vivo; conditions: iv, rat, i.v. administration
Description: This in vivo test involves using terminally-anaesthetised or conscious rats in which an arterial catheter has been implanted under anaesthesia for the measurement of changes in blood pressure. The AII antagonistic effects of the test compound following oral or parenteral administration, are assessed against pressor responses induced by AII. To ensure that the effect is specific the effect of the test compound on vasopressin-induced pressor responses may also be determined in the same preparation.

- IC50 [1]: 20 nM
SMILES: CCc1cc(OCc2ccc(-c3ccccc3-c3nnn[nH]3)cc2)c2nc(OC)ccc2n1.Cl [Example 4, 2-ethyl-6-methoxy-4-[(2'-(1H-tetrazol-5-yl)-biphenyl-4-yl)methoxy]-1,5-naphthyridine hydrochloride]
- ED50 [2]: 0.6 mg/kg
